Values belong to the molecule of their own block, whether it stands above or below them.
What was measured:
17TIL = experiment: IFNγ release ELISA, 17TIL co-incubated with peptide-pulsed A*01:01 B-cells; assay type: cell-based, human; details: for IFN-γ release from TIL stimulated by pulsed peptide: peptide-pulsed A*01:01 EBV-transformed B cells, overnight co-incubation, vs non-pulsed B-cell control (FIG. 3A); for TIL IFNγ response in peptide titration: titrated concentrations of pulsed peptide (FIG. 3B)
Experimental: (§1) IFNγ's release from TIL, as measured in an enzyme-linked immunosorbent assay (ELISA), was used to quantify reactivity. Synthetic pure (>95% purity) mutant ([…] (SEQ ID NO: 1)) and wild-type ([…] (SEQ ID NO: 2)) peptides were purchased from GenScript and dissolved in DMSO.
(§2) EBV-transformed B-cells bearing HLA allele A*01:01 were used for peptide pulsing. A B-cell suspension at 1×10^6 cells/ml was incubated with the peptide of choice, at the desired concentration (0.001-10 μg/ml), for 4 h in a 37° C., 5% CO2, humidified incubator. The DMSO volume was kept at 1% in all samples. For the no-peptide control, DMSO devoid of peptides was added. The B-cells were washed in PBS three times before proceeding to the co-incubation with TILs. TILs were co-cultured with either cognate melanoma or EBV-transformed B-cells at a 1:1 ratio (10^5-2×10^6 cells) and incubated overnight in a 37° C., 5% CO2, humidified incubator. The soluble IFNγ secreted from TILs was quantified from the co-culture supernatant using Biolegend Human IFN-γ ELISA MAX Deluxe (Cat#430106). All experiments were conducted in biological triplicates.
(§3) To evaluate the immunogenicity of the NRAS.Q61K neo-antigen, two melanoma cell lines that harbor the HLA-A*01:01/NRAS.Q61K combination, 17T and 135T were analyzed. Synthetic mutant (ILDTAG ? EEY-SEQ ID NO: 1) or wild-type (ILDTAG ? EEY-SEQ ID NO: 2) peptide was pulsed on either one of three commercial, A*01:01 expressing, Epstein bar virus (EBV)-transformed B cells^35. No other HLA class-I allele was shared among all three B-cell lines, and no other HLA class-I allele expressed by these cell lines was predicted to bind the neo-peptide at hand (Table 2).
(§4) The peptide-pulsed B-cells were co-incubated with either 17TIL or 135TIL overnight, followed by measurement of peptide stimulated interferon-γ (IFN-γ) release from the TIL by means of enzyme-linked immunosorbent assay (ELISA). […] Peptide titration assays further confirmed specific TIL reactivity towards the HLA-A*01:01/NRAS.Q61K neo-antigen, for both 17TIL and 135TIL (FIG. 3B).

135TIL = experiment: IFNγ release ELISA, 135TIL co-incubated with peptide-pulsed A*01:01 B-cells; assay type: cell-based, human; details: for IFN-γ release from TIL stimulated by pulsed peptide: peptide-pulsed A*01:01 EBV-transformed B cells, overnight co-incubation, vs non-pulsed B-cell control (FIG. 3A); for TIL IFNγ response in peptide titration: titrated concentrations of pulsed peptide (FIG. 3B)
Experimental: as §1, §2, §3, §4

[1] = target: T1, NRAS Q61K (RAS.Q61K) peptide on HLA-A*01:01 (human); experiment: multimer staining
T1 peptide: ILDTAGKEEY
Experimental: (§5) Peripheral mononuclear cells (PBMC) from healthy donors were electroporated with in-vitro transcribed mRNA, coding for TCRα/TCRβ combinations of interest. […] (A) Flow cytometry plots for electroporated PBMC. Top row—mouse TCRβ constant region staining. Bottom row—[sequence]/A*01:01 tetramer staining. Cells were stained at 6-30 hours post electroporation. (B) IFNγ release from electroporated donor PBMC as measured in ELISA. A*01:01+ B-LCL IHW01161 was pulsed with either wild-type or mutant versions of the peptide at 10 μM prior to overnight co-incubation with electroporated PBMC. Supernatants were diluted 1:20 prior to assay performance to avoid saturation.

[2] = target: T2, RAS wild-type (NRAS) peptide on HLA-A*01:01 (human); experiment: cytokine release
T2 peptide: ILDTAGQEEY
Experimental: as §5

[3] = target: T1, NRAS Q61K (RAS.Q61K) peptide on …; experiment: cytokine release
Experimental: as §5

binding result [1]: recognises | binding result [2]: no recognition
B2: N135.1 (TCR)
alpha TRAV19 TRAJ39 CDR3: CALSESHNNAGNMLTF
beta TRBV6-1 TRBJ1-1 CDR3: CAASQNTEAFF

binding result [1]: recognises | binding result [2]: no recognition
B3: N17.3 (TCR)
alpha TRAV19 TRAJ17 CDR3: CALSESGDAAGNKLTF
beta TRBV6-1 TRBJ1-1 CDR3: CAEGENTEAFF

binding result [3]: recognises
B4: NA135.1/NB17.3 (TCR)
alpha TRAV19 TRAJ39 CDR3: CALSESHNNAGNMLTF
beta TRBV6-1 TRBJ1-1 CDR3: CAEGENTEAFF

More lines, now with the values behind:

Molecule: ILDTAGKEEY [RAS.Q61-derived neo-peptide, variant Q61K; presented on HLA-A*01:01]
minimum peptide concentration with significant IFNγ response (17TIL; peptide titration (FIG. 3B)): 10 ng/mL | IFN-γ release from TIL stimulated by pulsed peptide (17TIL): stimulated a clear interferon-γ (IFN-γ) signal | TIL IFNγ response in peptide titration (17TIL): clear dose-response relationship | minimum peptide concentration with significant IFNγ response (135TIL; peptide titration (FIG. 3B)): 1 ng/mL | IFN-γ release from TIL stimulated by pulsed peptide (135TIL): stimulated a clear interferon-γ (IFN-γ) signal | TIL IFNγ response in peptide titration (135TIL): clear dose-response relationship

Molecule: ILDTAGQEEY [WT RAS.Q61-derived peptide, reference compound]
IFN-γ release from TIL stimulated by pulsed peptide (17TIL): did not elicit significant increase over a non-pulsed B-cell control | TIL IFNγ response in peptide titration (17TIL): non-significant and did not depend on peptide concentration | IFN-γ release from TIL stimulated by pulsed peptide (135TIL): did not elicit significant increase over a non-pulsed B-cell control | TIL IFNγ response in peptide titration (135TIL): non-significant and did not depend on peptide concentration

B1: N17.2 (TCR)
alpha TRAV5 TRAJ9 CDR3: CAESSGGGFKTIF
beta TRBV6-6 TRBJ2-7 CDR3: CASSTPGPSAYEQYF
binding result [1]: recognises | binding result [2]: no recognition

Reference: patent US20220241331A1, “IDENTIFICATION OF RECURRENT MUTATED NEOPEPTIDES” (Yeda Research and Development Co. Ltd., priority 2019, published 2022)
